Experimental data published in US20120171123A1, “USES AND COMPOSITIONS FOR TREATMENT OF RHEUMATOID ARTHRITIS” (priority 2006, published 2012).

What was measured:
adult patients with RA = assay: Study 1: DAS28 change by CRP category; format: in vivo, human
Experimental: 407 patients with active RA enrolled in the 2 study arms. Of these patients, 299 (73.5%) patients completed the study until Week 52 and were evaluated.
Patients were grouped into three cohorts based on baseline CRP concentrations: low (<1 mg/dL); intermediate (1-4 mg/dL); and high (>4 mg/dL). Analyses were further conducted in two categories of patients according to their change in CRP concentrations at Week 12: those with a ≧20% decrease in CRP from baseline; or those with a <20% decrease in CRP from baseline. The following efficacy and radiographic measures were analyzed at Week 52 in the three baseline CRP categories and in the two Week 12 change in CRP categories: DAS28, ACR 20/50/70, Health assessment questionnaire (HAQ), and Total Sharp score (TSS).

[1] = system: patients with long-standing RA who had inadequate responses to MTX; assay: Study 1: serious adverse events
Experimental: Periodic ACR component evaluations were also performed throughout the study. Outcome measures included the following: Total Sharp Score (TSS), including joint erosions (JE) and joint space narrowing (JSN); ACR20, ACR50, and ACR70 response rates; and individual components of ACR responses criteria, including swollen joint count (SJC) and tender joint count (TJC). Efficacy and safety evaluations were conducted at regularly scheduled visits.

[2] = system: patients with long-standing RA; assay: Study 4: HAQ disability index; format: in vivo, human
Experimental: Efficacy outcomes were evaluated as observed data: DAS28; ACR 20/50/70; Tender Joint Count (TJC); Swollen Joint Count (SJC); and HAQ Disability Index. Baseline demographics and disease characteristics were similar in both Study 4 and Study 5 consistent with moderate to severe RA, as shown below in Table 64: […]

[3] = system: patients with RA who had failed prior treatment with infliximab; assay: Adalimumab after failed infliximab: ACR20/ACR50 and moderate EULAR response; format: in vivo, human; settings: 16 wk
Excerpt: Patients eligible to participate in the study included those with long-standing, moderate to severe RA who had terminated infliximab therapy because of lack or loss of efficacy and/or intolerance/side effects. […] Follow-up visits for safety and efficacy monitoring were scheduled at 2, 8, and 16 weeks. […] Efficacy parameters included TJC28 and SJC28; DAS28; ACR20, ACR50 Response; Moderate EULAR response; and HAQ. Subgroup analysis by reason for discontinuation included: • in case of discontinuation due to lack or loss of efficacy, patients were counted in the corresponding group regardless of additional cause of intolerance. • The subgroup “Discontinuation due to intolerance” was exclusive.

[4] = system: patients with moderate to severe rheumatoid arthritis; assay: Study C (Canadian open-label, adalimumab 40 mg sc eow add-on): TJC/SJC; format: in vivo, human
Experimental: (§1) The Canadian Adalimumab Clinical Trial (Study C) was an open-label, multi-center, Phase IIIb study conducted in Canada. […] Efficacy and safety were assessed at baseline, 4, 8, and 12 weeks. Efficacy assessments included tender joint count (TJC 0-28), swollen joint count (SJC 0-28), Disease Activity Score 28 (DAS28), Health Assessment Questionnaire (HAQ), and EULAR response. This was a preliminary analysis of 236 patients. The sample size for each outcome variable is based on the data available at the time of the analysis. The data from this preliminary analysis were compared with the Week 12 data from Study A (N=2008).

[5] = system: patients with moderate to severe rheumatoid arthritis; assay: Study C: DAS28; format: in vivo, human
Experimental: as §1

[6] = system: patients with active rheumatoid arthritis; settings: Study A (N=2008), 12 weeks; cited from earlier work
[7] = blinded-controlled and OLE periods
[8] = all reasons for infliximab withdrawal (N=37)
[9] = loss of response to infliximab (N=19)
[10] = no response to infliximab (N=13)
[11] = Study C, 12 weeks, preliminary analysis

Compound: CN(Cc1cnc2nc(N)nc(N)c2n1)c1ccc(C(=O)N[C@@H](CCC(=O)O)C(=O)O)cc1 [mtx alone, methotrexate]
- DAS28 mean change (adult patients with RA; week 52, baseline CRP 1-4 mg/dL): −1.2
- DAS28 mean change (adult patients with RA; week 52, baseline CRP <1 mg/dL): −1.3
- DAS28 mean change (adult patients with RA; week 52, baseline CRP >4 mg/dL): −1.7

Compound: adalimumab: human anti-TNF mAb (HUMIRA, Abbott Laboratories), described in U.S. Pat. No. 6,090,382 as D2E7
- Demyelinating disease [1, 7]: 0.2 events/100-PY
- Histoplamosis [1, 7]: 0.2 events/100-PY
- Tuberculosis [1, 7]: 0.2 events/100-PY
- Demyelinating disease ([1]; blinded-controlled period): 0.3 events/100-PY
- Histoplamosis ([1]; blinded-controlled period): 0.3 events/100-PY
- Tuberculosis ([1]; blinded-controlled period): 0.3 events/100-PY
- Lymphoma ([1]; in vivo): 0.3 events/100-PY
- Urinary tract infections ([1]; in vivo): 0.3 events/100-PY
- HAQ, % change of mean clinical improvement from baseline ([2]; 6 months): 45%
- HAQ, % change of mean clinical improvement from baseline ([2]; 12 months): 43%
- HAQ, % change of mean clinical improvement from baseline ([2]; 24 months): 47%
- HAQ, % change of mean clinical improvement from baseline ([2]; 36 months): 47%
- HAQ, % change of mean clinical improvement from baseline ([2]; 48 months): 50%
- ACR20 [3, 8]: 49%
- ACR50 [3, 8]: 26%
- Moderate EULAR response [3, 8]: 65%
- ACR20 ([3]; infliximab intolerance (N=5)): 40%
- ACR50 ([3]; infliximab intolerance (N=5)): 20%
- Moderate EULAR response ([3]; infliximab intolerance (N=5)): 80%
- ACR20 [3, 9]: 61%
- ACR50 [3, 9]: 39%
- Moderate EULAR response [3, 9]: 74%
- ACR20 [3, 10]: 33%
- ACR50 [3, 10]: 8%
- Moderate EULAR response [3, 10]: 46%
- SJC (0-28), change from baseline, median [4, 11]: −7 (123)
- TJC (0-28), change from baseline, median [4, 11]: −10 (123)
- mean SJC ([4]; week 12 (baseline 14)): 7.4
- mean TJC ([4]; week 12 (baseline 17)): 8.1
- DAS28 (mean), change from baseline [5, 11]: −2.1 (116)
- mean decrease in DAS28 score ([5]; week 12): −2.1
- patients achieving DAS28<2.6 ([5]; week 12): 10%
- reduction in DAS28 score ([5]; week 12): 32%
- mean DAS28 ([5]; week 12 (baseline 6.5)): 4.4
- HAQ (mean), change from baseline [6]: −0.49
